Assay results as given in PMC9699427 (Viruses, 2022).
Read-outs that look alike come from different tables or passages of the source.

Assay: Pharmacokinetics after iv and oral dosing
Format: in vivo, BALB/c mice
Conditions: for half-life: read-out: t1/2z (converted)
[1] = mouse, plasma, iv 2 mg/kg, female BALB/c mice
[2] = mouse, plasma, iv 2 mg/kg, male BALB/c mice
[3] = mouse, plasma, po 30 mg/kg, female BALB/c mice
[4] = mouse, plasma, po 30 mg/kg, male BALB/c mice
[5] = mouse, plasma, po 60 mg/kg, female BALB/c mice
[6] = mouse, plasma, po 60 mg/kg, male BALB/c mice
[7] = mouse, plasma, po 120 mg/kg, female BALB/c mice
[8] = mouse, plasma, po 120 mg/kg, male BALB/c mice
[9] = po 30 mg/kg, female BALB/c mice
[10] = po 60 mg/kg, female BALB/c mice
[11] = po 120 mg/kg, female BALB/c mice

SMILES: Cc1cc(C#N)cc(C)c1Oc1nc(NC2CCN(Cc3ccc(S(N)(=O)=O)cc3)CC2)nc2ccsc12 [K-5a2]
- bioavailability (BALB/c, mouse, plasma, female mice, oral doses, read-out: Oral bioavailability): 8.5 ± 2.7%
- bioavailability (BALB/c, mouse, plasma, male mice, oral doses, read-out: Oral bioavailability): 6.8 ± 1.3%
- Tmax (both, mouse, plasma, single oral administration at 30, 60, or 120 mg/kg, BALB/c mice, read-out: Time to peak plasma concentration): 15 to 30 min
- Cmax (female, BALB/c, mouse, plasma, iv, 2 mg/kg, iv 2 mg/kg, female BALB/c mice, read-out: Cmax): 1.1 µg/mL
- Cmax (female, BALB/c, mouse, plasma, po, 30 mg/kg, po 30 mg/kg, female BALB/c mice, read-out: Cmax): 0.416 µg/mL
- Cmax (female, BALB/c, mouse, plasma, po, 60 mg/kg, po 60 mg/kg, female BALB/c mice, read-out: Cmax): 1.1 µg/mL
- Cmax (female, BALB/c, mouse, plasma, po, 120 mg/kg, po 120 mg/kg, female BALB/c mice, read-out: Cmax): 1.94 µg/mL
- Cmax (iv 2 mg/kg, female BALB/c mice, 2 mg/kg): 1.0983 µg/mL
- Cmax (iv 2 mg/kg, male BALB/c mice, 2 mg/kg): 1.0787 µg/mL
- Cmax (male, BALB/c, mouse, plasma, iv, 2 mg/kg, iv 2 mg/kg, male BALB/c mice, read-out: Cmax): 1.08 µg/mL
- Cmax (male, BALB/c, mouse, plasma, po, 30 mg/kg, po 30 mg/kg, male BALB/c mice, read-out: Cmax): 0.345 µg/mL
- Cmax (male, BALB/c, mouse, plasma, po, 60 mg/kg, po 60 mg/kg, male BALB/c mice, read-out: Cmax): 0.749 µg/mL
- Cmax (male, BALB/c, mouse, plasma, po, 120 mg/kg, po 120 mg/kg, male BALB/c mice, read-out: Cmax): 1.68 µg/mL
- AUC(0-t) [1]: 0.461 µg·h/mL
- clearance [1]: 4.15 L/h/kg
- Tmax (mouse, plasma, iv 2 mg/kg, female BALB/c mice, read-out: Tmax): 1.98 min
- Vd (mouse, plasma, iv 2 mg/kg, female BALB/c mice, read-out: Vd): 14.1 L/kg
- half-life [1]: 141 min
- AUC(0-t) [2]: 0.454 µg·h/mL
- clearance [2]: 4.23 L/h/kg
- Tmax (mouse, plasma, iv 2 mg/kg, male BALB/c mice, read-out: Tmax): 1.98 min
- Vd (mouse, plasma, iv 2 mg/kg, male BALB/c mice, read-out: Vd): 13.3 L/kg
- half-life [2]: 131 min
- AUC(0-t) [3]: 0.488 µg·h/mL
- bioavailability (mouse, plasma, po 30 mg/kg, female BALB/c mice, read-out: F): 7.05%
- Tmax (mouse, plasma, po 30 mg/kg, female BALB/c mice, read-out: Tmax): 15 min
- half-life [3]: 65.4 min
- AUC(0-t) [4]: 0.482 µg·h/mL
- bioavailability (mouse, plasma, po 30 mg/kg, male BALB/c mice, read-out: F): 7.08%
- Tmax (mouse, plasma, po 30 mg/kg, male BALB/c mice, read-out: Tmax): 30 min
- half-life [4]: 62.4 min
- AUC(0-t) [5]: 1.42 µg·h/mL
- bioavailability (mouse, plasma, po 60 mg/kg, female BALB/c mice, read-out: F): 10.2%
- Tmax (mouse, plasma, po 60 mg/kg, female BALB/c mice, read-out: Tmax): 15 min
- half-life [5]: 71.4 min
- AUC(0-t) [6]: 0.968 µg·h/mL
- bioavailability (mouse, plasma, po 60 mg/kg, male BALB/c mice, read-out: F): 7.1%
- Tmax (mouse, plasma, po 60 mg/kg, male BALB/c mice, read-out: Tmax): 30 min
- half-life [6]: 85.2 min
- AUC(0-t) [7]: 3.58 µg·h/mL
- bioavailability (mouse, plasma, po 120 mg/kg, female BALB/c mice, read-out: F): 12.9%
- Tmax (mouse, plasma, po 120 mg/kg, female BALB/c mice, read-out: Tmax): 30 min
- half-life [7]: 49.2 min
- AUC(0-t) [8]: 2.46 µg·h/mL
- bioavailability (mouse, plasma, po 120 mg/kg, male BALB/c mice, read-out: F): 9.05%
- Tmax (mouse, plasma, po 120 mg/kg, male BALB/c mice, read-out: Tmax): 30 min
- half-life [8]: 105 min
- CL [9]: 60.44 L/h/kg
- Vd [9]: 95.0 L/kg
- CL (po 30 mg/kg, male BALB/c mice): 60.93 L/h/kg
- Vd (po 30 mg/kg, male BALB/c mice): 91.4 L/kg
- CL [10]: 41.85 L/h/kg
- Vd [10]: 71.9 L/kg
- CL (po 60 mg/kg, male BALB/c mice): 61.26 L/h/kg
- Vd (po 60 mg/kg, male BALB/c mice): 125.1 L/kg
- CL [11]: 33.43 L/h/kg
- Vd [11]: 39.7 L/kg
- CL (po 120 mg/kg, male BALB/c mice): 47.48 L/h/kg
- Vd (po 120 mg/kg, male BALB/c mice): 120.2 L/kg
